{"source": "patent US20190175551A1", "about": "“MEDICINE FOR TREATING RENAL DISEASE” (Daiichi Sankyo Company, Limited, priority 2016, published 2019)", "key": {"[1]": {"test_system": "DOCA/sodium chloride-loaded hypertension model", "experiment": "Ameliorative effect on a renal disorder in the DOCA/sodium chloride-loaded hypertension model (kidney histopathology)", "assay_type": "in vivo, male WKY rats", "conditions": "for Glomerulosclerosis score / Tubular disorder score, Cortical side / Tubular disorder score, Medullary side: 15 weeks old, score 0 to 4, mean±standard error, n=6", "experimental": "Deoxycorticosterone acetate (DOCA)/sodium chloride-loaded hypertension model was prepared by the following procedure. 6 Week-old male WKY rats (WKY/Izm, SPF grade, produced by Funabashi Farm Co., Ltd.) were subjected to unilateral nephrectomy, diet containing 4% sodium chloride (4% NaCl-containing FR-2, manufactured by Funabashi Farm Co., Ltd.) was given from 7 weeks old by free feeding, and DOCA was administered subcutaneously once a week. DOCA was suspended in a 0.5% carboxymethylcellulose solution (20 mg/mL) and administered in an amount corresponding to 1 mL/kg. The group to which DOCA was not administered was designated as DOCA non-administration group and the group to which DOCA was administered was designated as DOCA administration group.\nAt 11 weeks old, some of the animals in the DOCA non-administration group were dissected and the other animals in the DOCA non-administration group were designated as normal group (Group 1). At the same time, some of the animals in the DOCA administration group were also dissected, and the others of the DOCA administration group were divided into the following groups (Groups 2 to 4).\nGroup 1: normal group, n=6 animals\nGroup 2; control group, n=6 animals\nGroup 3; compound (Ia) administration group [compound (Ia) 3 mg/kg], n=6 animals\nGroup 4: DOCA administration interruption+compound (Ia) administration group [compound (Ia) 3 mg/kg], n=6 animals\nThe dosing schedule of test drugs for each group after 11 weeks is as follows.\nTo Group 1, oral administration of a 0.5% methylcellulose solution was continued for 4 weeks. To Group 2, oral administration of 0.5% methylcellulose solution and subcutaneous administration (once a week) of DOCA were continued for 4 weeks. To Group 3, oral administration of compound (Ia) suspended in 0.5% methylcellulose solution (2 mL/kg) and subcutaneous administration (once a week) of DOCA were continued for 4 weeks.\nTo Group 4, only oral administration of compound (Ia) suspended in 0.5% methylcellulose solution (2 mL/kg) was continued for 4 weeks.\nAt the end of 4 weeks of administration of the test drug or the like (at the age of 15 weeks old), all animals were dissected.\nAt 7, 11, 13 and 15 weeks old, 24-hour urine collections were conducted using metabolic cages (2100-R, Watanabe Isolator Systems Co., Ltd.). Daily urinary protein excretion was calculated from the urine protein concentration (measured by BiOLiS 24i premium [Tokyo Boeki Medisys Inc.]) and urine volume.\nAt the time of dissection at 11 and 15 weeks old, the kidneys were isolated and weighed, and the kidney weight per body weight was calculated.\nFurthermore, histopathological sections were prepared from a part of the isolated kidneys, and histopathological evaluation (scoring of glomerulosclerosis and tubular disorder) was conducted. For glomerulosclerosis, 30 glomeruli were selected at random for each sample, and the degree of glomerulosclerosis of each sample was quantified on the basis of 5 stages (0 to 4) to determine an average value of 30 values, which was used as a score of the sample (Uehara Y, et al., Hypertens. Res. 1992; 15, pp 17-26). For tubular disorder, for each of the cortical and medullary sides, 10 fields of view were selected for each sample, the degree of tubular disorder was quantified on the basis of 5 stages (0 to 4) to determine the average value of values for each 10 fields of view, which was used as a score of the sample (Uehara Y, et al., Hypertens. Res. 1992; 15, pp 17-26). Results are shown in Table 3 (each numerical value in the table represents the mean±standard error)."}, "[2]": {"test_system": "patients with type 2 diabetes mellitus having albumin urine", "experiment": "Phase II randomized, placebo controlled, double-blind clinical study of compound (Ia) (Example 3)", "assay_type": "in vivo, human", "conditions": "for Reduction rate of UACR (geometric mean) from baseline at the end of dosing / Remission rate of UACR: 12 weeks; for Remission rate of UACR: UACR <30 mg/g Cr at 11 and 12 weeks and decreased by 30% or more", "experimental": "A clinical study targeted to patients with type 2 diabetes mellitus having albumin urine was conducted to evaluate the efficacy and safety of the like of compound\n(Ia). This study is a Phase II randomized, placebo controlled, double-blind comparison study. Each of the patients was subjected to a washout period of 4 to 12 weeks followed by treatment comprising administrating placebo or compound (Ia) (0.625 mg, 1.25 mg, 2.5 mg, 5 mg) once a day over a treatment period of 12 weeks.\n365 Patients in Japan who met the following criteria entered this study, and an efficacy and safety analysis set included 358 cases.\n1. The patient is with type 2 diabetes mellitus; 2. The patient is 20 years old or more at the time of consent; 3. Urine albumin/creatinine ratio (UACR) is 45 mg/g Cr or more and less than 300 mg/g Cr; 4. Estimated glomerular filtration rate calculated with serum creatinine (eGFRcreat) is 30 mL/min/1.73 m^2 or more; and 5. The patient has been subjected to treatment with an angiotensin-converting enzyme inhibitor or an angiotensin II receptor antagonist (and optionally a calcium antagonist) since at least 3 months before the start of treatment.\nThe patient was followed up for approximately 6 weeks after the end of dosing, and evaluated for change in UACR from baseline, remission rate of UACR and numerical value of eGFR as well as safety.\nRemission rate of UACR (%)=(number of subjects in remission÷number of all subjects to be analyzed)×100"}, "[3]": {"conditions": "Group 3: 3 mg/kg oral for 4 weeks with continued DOCA"}, "[4]": {"conditions": "Group 4: DOCA administration interruption + 3 mg/kg oral for 4 weeks"}}, "data": [{"smiles": "Cc1c(C(=O)Nc2ccc(S(C)(=O)=O)cc2)cn(CCO)c1-c1ccccc1C(F)(F)F", "note": "(atropisomer, axis not shown) [compound (Ia), (S)-1-(2-hydroxyethyl)-4-methyl-N-[4-(methylsulfonyl)phenyl]-5-[2-(trifluoromethyl)phenyl]-1H-pyrrole-3-carboxamide]", "values": [{"measurement": "Effect on renal disorders (proteinuria, renal hypertrophy, glomerulosclerosis and tubular disorder)", "setting": "[1]; 3 mg/kg oral for 4 weeks, disease model animals", "result": "excellent ameliorative effect"}, {"measurement": "Glomerulosclerosis score", "setting": "[1]; [3]", "result": "0.29 ± 0.05"}, {"measurement": "Tubular disorder score, Cortical side", "setting": "[1]; [3]", "result": "1.02 ± 0.07"}, {"measurement": "Tubular disorder score, Medullary side", "setting": "[1]; [3]", "result": "1.73 ± 0.04"}, {"measurement": "Effect on renal disorders versus normal group", "setting": "[1]; [4]", "result": "ameliorated almost to the normal group level"}, {"measurement": "Glomerulosclerosis score", "setting": "[1]; [4]", "result": "0.20 ± 0.04"}, {"measurement": "Tubular disorder score, Cortical side", "setting": "[1]; [4]", "result": "0.67 ± 0.06"}, {"measurement": "Tubular disorder score, Medullary side", "setting": "[1]; [4]", "result": "1.42 ± 0.11"}, {"measurement": "Reduction rate of UACR (geometric mean) from baseline at the end of dosing", "setting": "[2]; 0.625 mg once a day", "result": 21, "unit": "%"}, {"measurement": "Remission rate of UACR", "setting": "[2]; 0.625 mg once a day", "result": 7.5, "unit": "%"}, {"measurement": "Reduction rate of UACR (geometric mean) from baseline at the end of dosing", "setting": "[2]; 1.25 mg once a day", "result": 37, "unit": "%"}, {"measurement": "Remission rate of UACR", "setting": "[2]; 1.25 mg once a day", "result": 12.3, "unit": "%"}, {"measurement": "Reduction rate of UACR (geometric mean) from baseline at the end of dosing", "setting": "[2]; 2.5 mg once a day", "result": 50, "unit": "%"}, {"measurement": "Remission rate of UACR", "setting": "[2]; 2.5 mg once a day", "result": 21.2, "unit": "%"}, {"measurement": "Reduction rate of UACR (geometric mean) from baseline at the end of dosing", "setting": "[2]; 5 mg once a day", "result": 56, "unit": "%"}, {"measurement": "Remission rate of UACR", "setting": "[2]; 5 mg once a day", "result": 21.1, "unit": "%"}, {"measurement": "Therapeutic effect (UACR reducing effect and increase in remission rate)", "setting": "[2]; patients without sufficient effect on ACE inhibitor or angiotensin II receptor antagonist (optionally calcium antagonist)", "result": "excellent therapeutic effect"}]}]}
